Measurements reported in patent US9695155B2, “Herbicidal substituted pyrimidinyloxy benzene compounds” (E. I. DU PONT DE NEMOURS AND COMPANY, priority 2013, dated 2017).

How the values were obtained:
[1] = test system: field violet; assay: Test D preemergence; assay type: in vivo, Viola arvensis; conditions: Viola arvensis, pre-emergence, scale 0-100, read-out: Plant response rating, Field Violet
Summary of the method: (§1)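 After treatment, visual injury versus untreated plants, 0–100 scale, assessed at 7 to 21 days. Applications were made preemergence to silt loam-sown seed and postemergence to seedlings 2–18 cm high in potting medium.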

[2] = test system: deadnettle; assay: Test D preemergence; assay type: in vivo, Lamium amplexicaule; conditions: Lamium amplexicaule, pre-emergence, scale 0-100, read-out: Plant response rating, Deadnettle
Summary of the method: as §1

[3] = test system: winter barley; assay: Test D preemergence; assay type: in vivo, Hordeum vulgare; conditions: Hordeum vulgare, pre-emergence, scale 0-100, read-out: Plant response rating, Barley, Winter
Summary of the method: as §1

[4] = test system: spring wheat; assay: Test D preemergence; assay type: in vivo, Triticum aestivum; conditions: Triticum aestivum, pre-emergence
Summary of the method: as §1

[5] = test system: winter wheat; assay: Test D preemergence; assay type: in vivo, Triticum aestivum; conditions: Triticum aestivum, pre-emergence
Summary of the method: as §1

[6] = test system: wild buckwheat; assay: Test D preemergence; assay type: in vivo, Polygonum convolvulus; conditions: Fallopia convolvulus, pre-emergence, scale 0-100, read-out: Plant response rating, Buckwheat, Wild
Summary of the method: as §1

[7] = test system: wild oat; assay: Test D preemergence; assay type: in vivo, Avena fatua; conditions: Avena fatua, pre-emergence, scale 0-100, read-out: Plant response rating, Oat, Wild
Summary of the method: as §1

[8] = test system: galium; assay: Test D postemergence; assay type: in vivo, Galium aparine; conditions: Galium, post-emergence, scale 0 to 100 (0 no effect, 100 complete control), read-out: Plant response rating, Galium
Summary of the method: as §1

[9] = test system: spring barley; assay: Test D postemergence; assay type: in vivo, Hordeum vulgare; conditions: Hordeum vulgare, post-emergence, Postemergence, scale 0 to 100 (0 no effect, 100 complete control), read-out: Plant response rating, Barley, Spring
Summary of the method: as §1

[10] = test system: winter barley; assay: Test D postemergence; assay type: in vivo, Hordeum vulgare; conditions: Hordeum vulgare, post-emergence, Postemergence, scale 0 to 100 (0 no effect, 100 complete control), read-out: Plant response rating, Barley, Winter
Summary of the method: as §1

[11] = test system: cocklebur; assay: Test E preemergence; assay type: in vivo, Xanthium strumarium; conditions: for Cocklebur plant response rating: scale 0 to 100 (0 no effect, 100 complete control)
Summary of the method: (§2)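 Compound in a non-phytotoxic solvent mixture with surfactant was applied preemergence to seeds in silt loam soil, or postemergence to plants 2 to 18 cm tall grown in peat-based potting medium. Plants were kept in a greenhouse for 14 to 21 days, then rated visually against untreated controls on a 0 (no effect) to 100 (complete control) scale.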

[12] = test system: Italian ryegrass; assay: Test E postemergence; assay type: in vivo, Lolium multiflorum; conditions: Lolium multiflorum, post-emergence, read-out: Plant response rating, Ryegrass, Italian
Summary of the method: as §2

[13] = test system: hairy beggarticks; assay: Test E postemergence; assay type: in vivo, Bidens pilosa; conditions: Bidens pilosa, post-emergence, read-out: Plant response rating, Beggarticks
Summary of the method: as §2

[14] = Postemergence, 31 g ai/ha, scale 0 to 100
[15] = Postemergence, 62 g ai/ha, scale 0 to 100
[16] = Postemergence, 125 g ai/ha, scale 0 to 100
[17] = Postemergence, 250 g ai/ha, scale 0 to 100
[18] = postemergence, 16 g ai/ha, scale 0 to 100, 0 no effect, 100 complete control

N#Cc1cccc(Oc2ncc(Br)cn2)c1-n1cc(C(F)(F)F)cn1 [Compound 59, 3-[(5-bromo-2-pyrimidinyl)oxy]-2-[4-(trifluoromethyl)-1H-pyrazol-1-yl]benzonitrile]
pest or weed control at 31 g/ha ([1]; 31 g ai/ha): 65%
pest or weed control at 62 g/ha ([1]; 62 g ai/ha): 85%
pest or weed control at 125 g/ha ([1]; 125 g ai/ha): 100%
pest or weed control at 250 g/ha ([1]; 250 g ai/ha): 100%
pest or weed control at 31 g/ha ([2]; 31 g ai/ha): 100%
pest or weed control at 62 g/ha ([2]; 62 g ai/ha): 100%
pest or weed control at 125 g/ha ([2]; 125 g ai/ha): 100%
pest or weed control at 250 g/ha ([2]; 250 g ai/ha): 100%
plant injury at 31 g/ha ([3]; 31 g ai/ha): 0%
plant injury at 62 g/ha ([3]; 62 g ai/ha): 10%
plant injury at 125 g/ha ([3]; 125 g ai/ha): 40%
plant injury at 250 g/ha ([3]; 250 g ai/ha): 80%
plant injury at 31 g/ha ([4]; 31 g ai/ha, scale 0 (no effect) to 100 (complete control), read-out: Plant response rating, Wheat, Spring): 0%
plant injury at 62 g/ha ([4]; 62 g ai/ha, scale 0-100, read-out: Plant response rating, Wheat, Spring): 5%
plant injury at 125 g/ha ([4]; 125 g ai/ha, scale 0-100, read-out: Plant response rating, Wheat, Spring): 40%
plant injury at 250 g/ha ([4]; 250 g ai/ha, scale 0-100, read-out: Plant response rating, Wheat, Spring): 55%
plant injury at 31 g/ha ([5]; 31 g ai/ha, scale 0 (no effect) to 100 (complete control), read-out: Plant response rating, Wheat, Winter): 0%
plant injury at 62 g/ha ([5]; 62 g ai/ha, scale 0-100, read-out: Plant response rating, Wheat, Winter): 5%
plant injury at 125 g/ha ([5]; 125 g ai/ha, scale 0-100, read-out: Plant response rating, Wheat, Winter): 5%
plant injury at 250 g/ha ([5]; 250 g ai/ha, scale 0-100, read-out: Plant response rating, Wheat, Winter): 35%
pest or weed control at 31 g/ha ([6]; 31 g ai/ha): 60%
pest or weed control at 62 g/ha ([6]; 62 g ai/ha): 100%
pest or weed control at 125 g/ha ([6]; 125 g ai/ha): 100%
pest or weed control at 250 g/ha ([6]; 250 g ai/ha): 100%
pest or weed control at 31 g/ha ([7]; 31 g ai/ha): 0%
pest or weed control at 62 g/ha ([7]; 62 g ai/ha): 0%
pest or weed control at 125 g/ha ([7]; 125 g ai/ha): 20%
pest or weed control at 250 g/ha ([7]; 250 g ai/ha): 55%
pest or weed control at 31 g/ha ([8]; 31 g ai/ha): 75%
pest or weed control at 62 g/ha ([8]; 62 g ai/ha): 80%
pest or weed control at 125 g/ha ([8]; 125 g ai/ha): 95%
pest or weed control at 250 g/ha ([8]; 250 g ai/ha): 95%
plant injury at 31 g/ha ([9]; 31 g ai/ha): 10%
plant injury at 62 g/ha ([9]; 62 g ai/ha): 20%
plant injury at 125 g/ha ([9]; 125 g ai/ha): 20%
plant injury at 250 g/ha ([9]; 250 g ai/ha): 35%
plant injury at 31 g/ha ([10]; 31 g ai/ha): 10%
plant injury at 62 g/ha ([10]; 62 g ai/ha): 15%
plant injury at 125 g/ha ([10]; 125 g ai/ha): 15%
plant injury at 250 g/ha ([10]; 250 g ai/ha): 25%
Cocklebur plant response rating ([11]; 31 g ai/ha): 0
Cocklebur plant response rating ([11]; 62 g ai/ha): 0
Plant response rating, Cocklebur ([11]; 250 g ai/ha, scale 0 to 100, 0 no effect, 100 complete control): 0
pest or weed control at 31 g/ha [12, 14]: 0%
pest or weed control at 62 g/ha [12, 15]: 15%
pest or weed control at 125 g/ha [12, 16]: 25%
pest or weed control at 250 g/ha [12, 17]: 60%
pest or weed control at 16 g/ha [12, 18]: 0%
pest or weed control at 31 g/ha [13, 14]: 60%
pest or weed control at 62 g/ha [13, 15]: 60%
pest or weed control at 125 g/ha [13, 16]: 70%
pest or weed control at 250 g/ha [13, 17]: 95%
pest or weed control at 16 g/ha [13, 18]: 50%
